Data from patent US20240398868A1 (GEL4MED, INC., priority 2020, published 2024).

Assay: Net charge and isoelectric point of peptide
Type: physicochemical
Details: pH 7
Description: The peptide may be purified. For example, the peptide may be lyophilized. […] Other peptides are within the scope of the disclosure.
Exemplary peptides having a charge of +5 to +9 include […](d)[…], […](d)[…], and […](d)[…]. In other embodiments, the purified peptide may be substantially neutral. […] Net charge may be selected by peptide design. Design of electrostatic charge in the peptide hydrogel may allow control of charge interaction with cell membrane and proteins.

For VEVSVSVEV(d)PPTEVSVEVEV, the net charge was “net negative charge”.
